Tests used:
[1] = test system: guinea pig skin; assay: Toxicity experiment with rays in guinea pig (Morikawa et al. method); format: in vivo, guinea pig (Crj; Hartley); conditions: 0.03 mL of 0.05% 8-methoxypsoralen, UV, all spread parts
Experimental: In the comparative group of the medium, the clipped backs of the guinea pigs were open spread by 0.03 mL of dimethylsulfoxide.
As the positive comparative group, the clipped backs of the guinea pigs were open spread by 0.03 mL of 0.05% 8-methoxypsoralen. After 30 minutes, they were exposed to ultraviolet rays (about 11.2 Joules/cm^2). The reactions on the skins were evaluated at 24 and 48 hours after exposing to rays.

[2] = test system: fibroblasts derived from Chinese hamster lung (CHL/IU cell); assay: Experiment on chromosome aberration by using mammalian cells; format: cell-based; conditions: positive comparative group, short time
Experimental: The experiment on chromosome aberration was examined as follows. The experiment doses of the test material were determined by the inhibition experiment of increasing cells. As a result of the inhibition experiment of increasing cells, the concentration of test material in 50% inhibition experiment of increasing cells was 5.0 mg/mL or more in −S9mix method treating in a short time. And the concentration thereof was 0.840 mg/mL in +S9mix method treating in a short time.
As the negative comparative, the non-treating group and the comparative group of the medium were prepared, and as the positive comparative, the mitomycin C (0.05 μg/mL)-treating group was prepared.
Under this experiment, colcemid (available from GIBCO/Lot No. 1125546) was added to laboratory dishes for chromosome specimens to the last concentration of 0.2 μg/mL at 2 hours before making specimens so that cell divisions were stopped in the middle of the division period. After 2 hours, the culture solutions in the laboratory dishes were moved into a conical bottom tube. […] Furthermore, the laboratory dishes prepared for the cell increasing rate were fixed and stained in the same method as the inhibition experiment of increasing cells described above, and the cell increasing rate was measured. […]

[3] = test system: guinea pig skin; conditions: sensitized with 0.1% DNCB, induced by 0.1% DNCB, 48 hours after inducing
[4] = test system: guinea pig skin; assay: Sensitization experiment with rays in guinea pig skin (Adjuvant and Strip method); format: in vivo, guinea pig (Crj; Hartley); conditions: sensitized with 5% 6-MC
Experimental: The procedures were repeated for 5 days and the guinea pigs were sensitized with rays.
In the comparative group of the medium, the guinea pigs were injected with to sensitize and induced by dimethylsulfoxide. […] As the positive comparative group, the guinea pigs were injected with 5% 6-methylcoumarin (6-MC) to sensitize, and induced by 1% 6-MC.

[5] = biological target: T1, Tick antigen Derf II (Dermatophagoides farinae, UniProt Q00855); assay: Two-dimensional electrophoresis of tick allergen with and without Fe-Pc-COOK; format: biochemical; conditions: Derf II sol. with 0.1 or 0.5 w/v % Fe-Pc-COOK (A) vs tick allergen only (B), silver stain
T1 construct: purchased ASAHI BREWERIES, LTD
T1 sequence (Q00855 18-146): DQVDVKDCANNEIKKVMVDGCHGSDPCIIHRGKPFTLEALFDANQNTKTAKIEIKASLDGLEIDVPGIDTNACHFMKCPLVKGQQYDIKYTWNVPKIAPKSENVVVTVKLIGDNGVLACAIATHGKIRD
Description: Tick antigen Derf II (available from ASAHI BREWERIES, LTD.) was chosen between the allergens, and we compared electrophoresis of the tick allergen containing iron phthalocyanine tetracarboxylic acid with that of the allergen only.
Iron phthalocyanine tetracarboxylic acid potassium salt (Fe-Pc-COOK) aqueous solution and Derf II solution, which appropriate concentrations (w/v %) were mentioned in Table 4, were mixed with swelling stock solution containing IPG (Immobilized pH Gradient) buffer (8 mol/L Urea, 2 w/v % CHAPS, 2% IPG Buffer, appropriate amount of Bromophenol blue, and distilled water) to prepare experimental solutions of preparing examples 1-4 in Table 4.
Whereas Derf II solution was mixed with swelling stock solution containing IPG buffer to prepare experimental solutions of comparative preparing examples 1-4 in Table 4.
One-dimensional electrophoresis gel films (Strip) of Strip pH4-7 and Strip pH 3-10.5 were prepared, soaked in each experimental solution containing appropriate amount of silicon oil for preventing dry, and treated for 10 hours. After being pulled up and washed, each Strip was subjected to one-dimensional electrophoresis containing silicon oil for preventing dry for 16 hours. […]

[6] = test system: rabbit eye mucosa; assay: Irritation experiment on rabbit eye mucosa; format: in vivo, rabbit (Japanese White); conditions: for irritation on the rabbit eye mucosa (Kay and Calandra classification): 100 mg powder
Experimental: Male rabbits at the age of 10 weeks (Japanese White, Kb1:JW(SPF)) were prepared for a washed group (n=3) and a non-washed group (n=3). After pre-bred for 7 days, the rabbits were confirmed normality about changes of body weight and health condition. On the preceding day, they were confirmed about normality of eyes macroscopically and no injury of cornea by fluoresceine staining (fluor-paper, Lot No. 3990849 available from Wyeth-Ayerest Laboratories, USA) using slitlamp (type SL-5: available from Kowa Company, Ltd.) to prepare for experiment.
100 mg of iron phthalocyanine tetracarboxylic acid powder, which was screened through a mesh having 300 μm of aperture once, was put into right conjunctiva of each rabbit, and upper and lower eyelids were gently kept closed for about one second. In the washed group, to remove powder, the conjunctiva was washed with 230-330 mL of lukewarm water at 30 seconds after putting to remove the powder. The left conjunctiva of each rabbit wasn't treated in both groups. The cornea, iris and the conjunctiva in both groups were compared with non-treated eye as reference at 1, 24, 48 and 72 hours after putting. […] The observation results were scored following Draize scoring criteria (Appendix 3), and the irritation was evaluated following Kay and Calandra classification (Appendix 4).

[7] = test system: rats; assay: Toxicity experiment by oral injection of solution dissolving the decomposer to rats (for once)
Experimental: They were divided into each group according to their body weights measured before housed by a continuous stratified sampling method. Extra rats caused by the method were excluded from the experiment and euthanized.
Following the medical toxicity test guideline, the amount of injection was determined 2000 mg/kg, technical upper limit of oral injection. A comparative group, which a comparative material of purified water in the Japanese Pharmacopoeia was injected, was also prepared. 10 male rats and 10 female rats were divided into two groups respectively.
Their health conditions and life or death were observed continuously before the injection of the solution, at 5, 15, 30 minutes, 1, 2, and 4 hours after the injection, and once a day as from the following day. They were weighed before the injection of the solution, and at 9:00-12:00 on 1, 3, 7, 10, 14th day after the injection. After all the observations, their organs and tissues in heads, chests and abdomens were researched whether normal or not.

## COc1c2occc2cc2ccc(=O)oc12 [8-methoxypsoralen]
[1]
  skin action score: 4

## CN(C)N=O [DMN]
[2]; +S9mix method
  appearance frequency of cells whose chromosomes were abnormal structurally: 37.5%

## O=[N+]([O-])c1ccc(Cl)c([N+](=O)[O-])c1 [DNCB, 2,4-dinitrochlorobenzene]
[3]
  positive rate: 100%

## Cc1ccc2oc(=O)ccc2c1 [Example 6-MC, 6-methylcoumarin]
[4]; induced by 1% 6-MC and exposed to ultraviolet rays
  erythema score: 2-4
[4]; induced by 1% 6-MC, all guinea pigs
  evaluation of sensitization with rays: positive

## CO[C@@]12[C@H](COC(N)=O)C3=C(C(=O)C(C)=C(N)C3=O)N1C[C@@H]1N[C@@H]12 [MMC, mitomycin C]
[2]; -S9mix method
  appearance frequency of cells whose chromosomes were abnormal structurally: 16%

## Iron phthalocyanine tetracarboxylic acid potassium salt
[5]
  effect on tick allergen spots in two-dimensional electrophoresis gel: Disappearance of the spots between pH 5-6

## iron phthalocyanine tetracarboxylic acid
[6]; non-washed group
  irritation on the rabbit eye mucosa (Kay and Calandra classification): moderately irritating
  time by which reaction of the conjunctiva disappeared: ≤ 10 days
[6]; washed group (washed 30 seconds after putting)
  irritation on the rabbit eye mucosa (Kay and Calandra classification): practically nonirritating
[6]; non-washed group, after putting
  time by which reactions of the cornea and the iris disappeared: ≤ 72 h
[6]; washed group, after putting
  time by which slight red conjunctiva disappeared: ≤ 24 h
[7]; 2000 mg/kg oral once, observed 14 days
  death during the experiment: no male and female rat
[7]; oral once, male and female rats
  minimum lethal dose: ≥ 2000 mg/kg

— US20090291934A1, “Method for decomposing an allergen” (Shinshu TLO Co., Ltd., priority 2003, published 2009)
